Experimental findings from patent US20260055102A1 (Redx Pharma Limited, priority 2022, published 2026) are described below.

For assay [1], the target named is Recombinant human DDR2 (aa427-855 containing a GST tag) (Homo sapiens (Human), UniProt Q16832). The experiment in a line: LanthaScreen Eu Kinase Binding Assay DDR2. The settings on record: Kinase Tracer 178 10 nM, at least two independent replicates; for IC50: read-out: DDR2 pIC50 (converted). As to the method: (§1) DDR1 and DDR2 Biochemical Assay Method The capacity of compounds to bind to DDR1 and DDR2 was quantified using a LanthaScreen Eu Kinase Binding Assay. Recombinant human DDR1 (2.5 nM; aa440-876 containing a GST tag) and DDR2 (1.75 nM; aa427-855 containing a GST tag) were diluted in assay buffer (50 mM HEPES pH7.3, 10 mM MgCl2, 1 mM EGTA and 0.01% Tween) with various concentrations of compound in a 384-well plate and a volume of 5 uL. After a 30-minute incubation at room temperature, 2.5 uL of Eu-anti GST antibody (diluted to 1 nM in assay buffer) plus Kinase Tracer 178 (diluted in assay buffer to 5 nM for DDR1 and 10 nM for DDR2) were added to the plate. Following 60-minute incubation at room temperature, time-resolved fluorescence was measured on a BMG Labtech PHERAstar plate reader. DMSO (1%) and reference compound (1 μM) were used to generate the Max and Min assay signals, respectively. Data was analysed using a four-parameter logistic model to calculate IC50 values, with at least two independent replicates were performed for each compound.
(In general: Time-resolved FRET reads energy transfer from a long-lived donor to a nearby acceptor.)

Assay [2] addresses Recombinant human DDR1 (aa440-876 containing a GST tag) (Homo sapiens (Human), UniProt Q08345). The experiment in a line: LanthaScreen Eu Kinase Binding Assay DDR1. The settings on record: Kinase Tracer 178 5 nM, at least two independent replicates; for IC50: read-out: DDR1 pIC50 (converted). As to the method:
as §1

Sequence of Recombinant human DDR1 (aa440-876 containing a GST tag) (Q08345 other isoform, or with tags, fused parts or gaps): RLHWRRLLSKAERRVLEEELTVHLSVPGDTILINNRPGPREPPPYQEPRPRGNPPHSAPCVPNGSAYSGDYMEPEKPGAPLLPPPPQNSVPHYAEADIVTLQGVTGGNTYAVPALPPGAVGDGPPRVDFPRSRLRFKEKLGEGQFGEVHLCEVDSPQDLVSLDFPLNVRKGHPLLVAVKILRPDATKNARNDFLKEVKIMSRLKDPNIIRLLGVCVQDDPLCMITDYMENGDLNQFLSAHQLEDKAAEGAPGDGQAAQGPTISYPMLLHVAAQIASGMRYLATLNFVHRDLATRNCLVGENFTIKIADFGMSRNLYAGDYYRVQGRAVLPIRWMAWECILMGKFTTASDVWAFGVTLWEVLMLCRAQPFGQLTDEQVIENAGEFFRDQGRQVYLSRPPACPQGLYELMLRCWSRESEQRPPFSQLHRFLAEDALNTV
Sequence of Recombinant human DDR2 (aa427-855 containing a GST tag) (Q16832 427-855): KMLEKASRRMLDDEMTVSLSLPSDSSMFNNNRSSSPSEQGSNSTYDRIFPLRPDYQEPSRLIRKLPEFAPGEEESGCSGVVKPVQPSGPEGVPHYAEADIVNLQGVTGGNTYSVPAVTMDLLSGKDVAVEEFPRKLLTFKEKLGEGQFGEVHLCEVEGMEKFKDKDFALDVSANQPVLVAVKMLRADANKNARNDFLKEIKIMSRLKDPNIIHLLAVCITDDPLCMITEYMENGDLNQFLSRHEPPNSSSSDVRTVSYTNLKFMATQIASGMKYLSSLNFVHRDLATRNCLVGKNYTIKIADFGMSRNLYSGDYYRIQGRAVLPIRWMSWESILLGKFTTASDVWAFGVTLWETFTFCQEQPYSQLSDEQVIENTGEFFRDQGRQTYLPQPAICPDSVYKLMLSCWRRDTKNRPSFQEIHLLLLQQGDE

`Cn1ncc2c(-c3ccc(-n4c(=O)n(CC(=O)NCC(F)(F)F)c5ccccc54)cc3)cncc21` [Example 1, 2-[3-[4-(1-methylpyrazolo[3,4-c]pyridin-4-yl)phenyl]-2-oxobenzimidazol-1-yl]-N-(2,2,2-trifluoroethyl)acetamide]: the “DDR2 pIC50” value in assay [1] was “D (pIC50≤6)”. For the same compound, in assay [2], the IC50 was 10 to 100 nM.
As to `Cc1cccc2c1n(-c1ccc(-c3cncc4[nH]ncc34)cn1)c(=O)n2CC(=O)N1CCO[C@H](C(F)(F)F)C1` [Example 70, 4-methyl-1-[2-oxo-2-[(2S)-2-(trifluoromethyl)morpholin-4-yl]ethyl]-3-[5-(1H-pyrazolo[3,4-c]pyridin-4-yl)-2-pyridyl]benzimidazol-2-one], in assay [1], the IC50 is 100 to 1000 nM. In addition, in assay [2], the “DDR1 pIC50” value is on record as “A (pIC50>8)”.
Consider `CN1CCN(C(=O)Cn2c(=O)n(-c3ccc(-c4cncc5c4cnn5C)cc3)c3ccccc32)CC1` [Example 21, 1-[2-(4-methylpiperazin-1-yl)-2-oxoethyl]-3-[4-(1-methylpyrazolo[3,4-c]pyridin-4-yl)phenyl]benzimidazol-2-one], for which the “DDR2 pIC50” value in assay [1] is “D (pIC50≤6)”. The “DDR1 pIC50” value in assay [2] is given as “D (pIC50≤6)”.
Turning to `Cn1ncc2c(-c3ccc(-n4c(=O)n(CC(=O)N5CCC[C@H](C(F)(F)F)C5)c5ccccc54)cc3)cncc21` [Example 31, 1-[4-(1-methylpyrazolo[3,4-c]pyridin-4-yl)phenyl]-3-[2-oxo-2-[(3S)-3-(trifluoromethyl)-1-piperidyl]ethyl]benzimidazol-2-one], the “DDR2 pIC50” value in assay [1] is on record as “D (pIC50≤6)”. Further, the “DDR1 pIC50” value in assay [2] is recorded as “A (pIC50>8)”.
For `Cc1nc(-c2cncc3[nH]nc(C)c23)cnc1-n1c(=O)n(CC(=O)NCC(F)(F)F)c2cccc(C)c21` [Example 104, 2-[4-methyl-3-[3-methyl-5-(3-methyl-1H-pyrazolo[3,4-c]pyridin-4-yl)pyrazin-2-yl]-2-oxo-benzimidazol-1-yl]-N-(2,2,2-trifluoroethyl)acetamide], in that order: “D (pIC50≤6)” and “D (pIC50≤6)”.
With `Cn1ncc2c(-c3ccc(-n4c(=O)n(CC(=O)N5CCCCC5C(F)(F)F)c5ccccc54)cc3)cncc21` (stereo not drawn) [Example 20, 1-[4-(1-methylpyrazolo[3,4-c]pyridin-4-yl)phenyl]-3-[2-oxo-2-[2-(trifluoromethyl)-1-piperidyl]ethyl]benzimidazol-2-one], in assay [1], the IC50 is 100 to 1000 nM. Also, in assay [2], the “DDR1 pIC50” value is given as “A (pIC50>8)”.
For the compound `Cn1ncc2c(-c3ccc(-n4c(=O)n(CC(=O)NC5CC5(F)F)c5ccccc54)cc3)cncc21` (stereo not drawn) [Example 36, N-(2,2-difluorocyclopropyl)-2-[3-[4-(1-methylpyrazolo[3,4-c]pyridin-4-yl)phenyl]-2-oxobenzimidazol-1-yl]acetamide], the “DDR2 pIC50” value in assay [1] was “D (pIC50≤6)”. Moreover, the IC50 in assay [2] is 100 to 1000 nM.
As to `Cc1cc(-c2cncc3c2cnn3C)ncc1-n1c(=O)n(CC(=O)N[C@H](C)C(F)(F)F)c2cccc(C)c21` [Example 107], the “DDR2 pIC50” value in assay [1] was “D (pIC50≤6)”. Further, in assay [2], the IC50 is 100 to 1000 nM.
Take `Cc1cccc2c1n(-c1ccc(-c3cncc4c3cnn4C)cc1)c(=O)n2CC(=O)NCC(F)(F)F` [Example 6, 2-[4-methyl-3-[4-(1-methylpyrazolo[3,4-c]pyridin-4-yl)phenyl]-2-oxobenzimidazol-1-yl]-N-(2,2,2-trifluoroethyl)acetamide]: the IC50 in assay [1] is 10 to 100 nM. Also, the “DDR1 pIC50” value in assay [2] is “A (pIC50>8)”.
As to `Cc1nc(-c2cncc3c2cnn3C)ccc1-n1c(=O)n(CC(=O)N[C@@H](C)C(F)(F)F)c2cccc(C)c21` [Example 113], the IC50 in assay [1] was 100 to 1000 nM; in assay [2] it was 10 to 100 nM.
Turning to `Cc1cc(-c2cncc3c2cnn3C)ccc1-n1c(=O)n(CC(=O)NCC(F)(F)F)c2cccc(C)c21` [Example 16, 2-[4-methyl-3-[2-methyl-4-(1-methylpyrazolo[3,4-c]pyridin-4-yl)phenyl]-2-oxo-benzimidazol-1-yl]-N-(2,2,2-trifluoroethyl)acetamide], the IC50 in assay [1] was 100 to 1000 nM. Also, the “DDR1 pIC50” value in assay [2] is on record as “A (pIC50>8)”.
Take `Cn1ncc2c(-c3ccc(-n4c(=O)n(CC(=O)NCC(F)(F)F)c5ccccc54)cc3F)cncc21` [Example 4, 2-[3-[3-fluoro-4-(1-methylpyrazolo[3,4-c]pyridin-4-yl)phenyl]-2-oxobenzimidazol-1-yl]-N-(2,2,2-trifluoroethyl)acetamide]: in assay [1], the “DDR2 pIC50” value is given as “D (pIC50≤6)”. The IC50 in assay [2] was 10 to 100 nM.
Consider `CC(NC(=O)Cn1c(=O)n(-c2ccc(-c3cncc4c3cnn4C)cc2)c2ccccc21)C1CC1` (stereo not drawn) [Example 19, N-(1-cyclopropylethyl)-2-[3-[4-(1-methylpyrazolo[3,4-c]pyridin-4-yl)phenyl]-2-oxobenzimidazol-1-yl]acetamide], for which, in assay [1], the “DDR2 pIC50” value is given as “D (pIC50≤6)”. Further, the IC50 in assay [2] was 10 to 100 nM.
Turning to `Cc1nc(-c2cncc3[nH]ncc23)ccc1-n1c(=O)n(CC(=O)NCC(F)(F)F)c2cccc(C)c21` [Example 94, 2-[4-methyl-3-[2-methyl-6-(1H-pyrazolo[3,4-c]pyridin-4-yl)-3-pyridyl]-2-oxo-benzimidazol-1-yl]-N-(2,2,2-trifluoroethyl)acetamide], the IC50 in assay [1] was 10 to 100 nM. In assay [2], the “DDR1 pIC50” value is “A (pIC50>8)”.
For the compound `Cn1ncc2c(-c3ccc(-n4c(=O)n(CC(=O)N5CCO[C@@H](C(F)(F)F)C5)c5ccccc54)cc3)cncc21` [Example 37, 1-[4-(1-methylpyrazolo[3,4-c]pyridin-4-yl)phenyl]-3-[2-oxo-2-[(2R)-2-(trifluoromethyl)morpholin-4-yl]ethyl]benzimidazol-2-one], the “DDR2 pIC50” value in assay [1] is on record as “D (pIC50≤6)”. Besides, the IC50 in assay [2] was 10 to 100 nM.
`Cc1cccc2c1n(-c1ccc(-c3cncc4c3cnn4C)cc1)c(=O)n2CC(=O)N1CCC[C@H]1CF` [Example 45, 1-[2-[(2S)-2-(fluoromethyl)pyrrolidin-1-yl]-2-oxo-ethyl]-4-methyl-3-[4-(1-methylpyrazolo[3,4-c]pyridin-4-yl)phenyl]benzimidazol-2-one]: the IC50 in assay [1] was 10 to 100 nM. In assay [2], the “DDR1 pIC50” value is recorded as “A (pIC50>8)”.
Consider `Cc1cccc2c1n(-c1ccc(-c3cncc4[nH]ncc34)cn1)c(=O)n2CC(=O)N[C@@H](C)C(F)(F)F` [Example 69, 2-[4-methyl-2-oxo-3-[5-(1H-pyrazolo[3,4-c]pyridin-4-yl)-2-pyridyl]benzimidazol-1-yl]-N-[(1S)-2,2,2-trifluoro-1-methyl-ethyl]acetamide], for which the IC50 in assay [1] is 10 to 100 nM. Moreover, in assay [2], the “DDR1 pIC50” value is recorded as “A (pIC50>8)”.
`Cc1cc(-n2c(=O)n(CC(=O)NCC(F)(F)F)c3cccc(C)c32)cnc1-c1cncc2[nH]nc(C)c12` [Example 102, 2-[4-methyl-3-[5-methyl-6-(3-methyl-1H-pyrazolo[3,4-c]pyridin-4-yl)-3-pyridyl]-2-oxo-benzimidazol-1-yl]-N-(2,2,2-trifluoroethyl)acetamide]: the “DDR2 pIC50” value in assay [1] is given as “D (pIC50≤6)”. Also, the IC50 in assay [2] was 100 to 1000 nM.
For `Cc1nc(-c2cncc3c2cnn3C)ccc1-n1c(=O)n(CC(=O)N[C@H](C)C(F)(F)F)c2cccc(C)c21` [Example 112], the IC50 was 100 to 1000 nM in assay [1] and 10 to 100 nM in assay [2].
As for `Cc1cccc2c1n(-c1ccc(-c3cncc4c3cnn4C)nc1)c(=O)n2CC(=O)N1CCO[C@H](C(F)(F)F)C1` [Example 54, 4-methyl-3-[6-(1-methylpyrazolo[3,4-c]pyridin-4-yl)-3-pyridyl]-1-[2-oxo-2-[(2S)-2-(trifluoromethyl)morpholin-4-yl]ethyl]benzimidazol-2-one], the IC50 in assay [1] is 10 to 100 nM. For the same compound, the “DDR1 pIC50” value in assay [2] is recorded as “A (pIC50>8)”.
On to `Cc1nc(-c2cncc3c2cnn3C)cnc1-n1c(=O)n(CC(=O)NCC(F)(F)F)c2cccc(C)c21` [Example 96, 2-[4-methyl-3-[3-methyl-5-(1-methylpyrazolo[3,4-c]pyridin-4-yl)pyrazin-2-yl]-2-oxo-benzimidazol-1-yl]-N-(2,2,2-trifluoroethyl)acetamide], for which the IC50 in assay [1] was 100 to 1000 nM. In addition, the “DDR1 pIC50” value in assay [2] is given as “A (pIC50>8)”.
For `Cc1cccc2c1n(-c1ccc(-c3cncc4c3cnn4C)cc1)c(=O)n2CC(=O)N1CCC[C@H]1CF` [Example 26, 4-methyl-3-[4-(1-methylpyrazolo[3,4-c]pyridin-4-yl)phenyl]-1-[2-oxo-2-[(2S)-2-(fluoromethyl)pyrrolidin-1-yl]ethyl]benzimidazol-2-one], in assay [2], the IC50 was 10 to 100 nM.
In the case of `CN(C)c1cccc2c1n(-c1ccc(-c3cncc4c3cnn4C)cc1)c(=O)n2CC(=O)NCC(F)(F)F` [Example 80, 2-[4-(dimethylamino)-3-[4-(1-methylpyrazolo[3,4-c]pyridin-4-yl)phenyl]-2-oxo-benzimidazol-1-yl]-N-(2,2,2-trifluoroethyl)acetamide], the IC50 in assay [2] is 10 to 100 nM.
On to `Cc1cccc2c1n(-c1ccc(-c3cncc4c3cnn4C)cn1)c(=O)n2CC(=O)N1CCO[C@H](C(F)(F)F)C1` [Example 61, 4-methyl-3-[5-(1-methylpyrazolo[3,4-c]pyridin-4-yl)-2-pyridyl]-1-[2-oxo-2-[(2S)-2-(trifluoromethyl)morpholin-4-yl]ethyl]benzimidazol-2-one], for which, in assay [1], the IC50 was 100 to 1000 nM.
